The results in this text go back to paper PMC7604503, “Cyclic peptides can engage a single binding pocket through highly divergent modes” (Proceedings of the National Academy of Sciences of the …, 2020).

For assay [1], the target named is T1, BRD2-BD1 (Homo sapiens, UniProt P25440).
T1 construct: human BRD2 (BD1: 65-194; BD2: 347-455); Avi tag (biotinylated); made in house; host or cells: E. coli BL21(DE3)
Briefly: SPR binding of peptides to immobilised biotinylated BET bromodomain. As to the method:
(§1) We next assessed the ability of each of the three lead peptides to bind BRD3-BD1. […] To assess selectivity for other BET BDs, we used SPR to determine the binding affinity of each peptide toward the remaining BDs from BRD2, BRD3, and BRD4 (Fig. 1B). […]
(§2) Peptides were synthesised as C-terminal amides using standard fluorenylmethyloxycarbonyl (Fmoc)-strategy solid-phase chemistry using a Syro I automated synthesiser (Biotage) and NovaPEG Rink Amide resin (Novabiochem). Couplings were performed with HBTU/HOBt (1:1) and 6 equivalents of each amino acid. Double couplings were performed for arginine residues.
(§3) Following the final amino acid coupling reaction, the Fmoc group was removed and resin incubated with N-(chloroacetoxy)succinimide (0.2 M in DMF, 1 h, RT). Resin was washed with DMF (5 times) and DCM (5 times) and dried in vacuo.
(§4) Linear peptides were cleaved from the resin by incubation (3 h, RT) with a trifluoroacetic acid (TFA) cleavage cocktail (TFA/2,2’-(ethylenedioxy)diethanethiol/triisopropyl silane/H2O (92.5:2.5:2.5:2.5)) before filtration, concentration in vacuo and precipitation with ice-cold diethyl ether. Crude peptides were washed with diethyl ether (5 times), dried and resuspended in DMSO. The pH was raised to >8 using triethylamine to allow cyclisation. Following incubation (1 h, RT), peptides were re-acidified with TFA for purification.
(§5) Crude peptides were purified by reverse-phase high-performance liquid chromatography using a Chromolith Prep column (Merck) on a Prominence LC-20AP system (Shimadzu) (Solvent A: 0.1% TFA in H2O, Solvent B: 0.1% TFA in acetonitrile) to >95% purity as determined by mass spectrometry (Fig. S17). Purified peptides were reconstituted in DMSO and concentrations determined from their absorbance at 280 nm in 5% DMSO using predicted extinction coefficients.
(§6) Surface plasmon resonance (SPR)
(§7) Measurements were conducted on a T200 or S200 (GE Healthcare) and data analysed using the Biacore Insight Evaluation Software. Experiments were performed at 4 °C in single cycle kinetics mode. Biotinylated BET bromodomains were immobilised on a CAP chip (GE Healthcare) with a […]
(§8) pH 7.5 was used as the running buffer. […]
For orientation: Surface plasmon resonance follows binding to a sensor surface in real time, without labels.

Assay [2] concerns the target T2, BRD3-BD2 (Homo sapiens, UniProt Q15059).
T2 construct: Avi tag (biotinylated); made in house; host or cells: E. coli BL21(DE3)
Described as above. As to the method:
as §1, §2, §3, §4, §5, §6, §7, §8

Assay [3] concerns the target T3, BRD4-BD1 (Homo sapiens, UniProt O60885).
T3 construct: BRD4 (BD1: 42-168; BD2: 348-464); Avi tag (biotinylated); made in house; host or cells: E. coli Rosetta2(DE3)
The assay is described as above. As to the method:
as §1, §2, §3, §4, §5, §6, §7, §8

The target in assay [4] is T4, BRD4-BD2 (Homo sapiens, UniProt O60885).
T4 construct: BRD4 (BD1: 42-168; BD2: 348-464); Avi tag (biotinylated); made in house; host or cells: E. coli BL21(DE3)
Described as above. As to the method: as §1, §2, §3, §4, §5, §6, §7, §8

In assay [5] the target is T5, BRD2-BD2 (Homo sapiens, UniProt P25440).
T5 construct: human BRD2 (BD1: 65-194; BD2: 347-455); Avi tag (biotinylated); made in house; host or cells: E. coli BL21(DE3)
T5 sequence (P25440 347-455): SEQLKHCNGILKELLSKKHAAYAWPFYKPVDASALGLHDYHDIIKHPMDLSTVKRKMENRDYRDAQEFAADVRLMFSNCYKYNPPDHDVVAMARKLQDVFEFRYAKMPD
The assay is described as above.
Excerpt: as §1, §5, §6, §7, §8

For assay [6], the target named is T6, BRD3-BD1 (Homo sapiens, UniProt Q15059).
T6 construct: BRD3 (BD1: 25-147); Avi tag (biotinylated); made in house; host or cells: E. coli BL21(DE3)
T6 sequence (Q15059 25-147): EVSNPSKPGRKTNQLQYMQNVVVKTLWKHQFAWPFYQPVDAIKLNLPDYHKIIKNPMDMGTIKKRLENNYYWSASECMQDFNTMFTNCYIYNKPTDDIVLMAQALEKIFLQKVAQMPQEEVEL
The assay is described as above. Conditions: for Kd: gray boxed value: no reproducible signals observed at the concentrations used.
Excerpt: as §1, §5, §6, §7, §8

The subject of assay [7] is BD1 domains (BRD2-BD1, BRD3-BD1, BRD4-BD1). Briefly: SPR binding, stated for the BD1 domains together. More on the design: species or system human. Conditions: for reduction of affinity relative to 3.1B: all three BD1 domains. As to the method:
as §1, §2, §3, §4, §5, §6, §7, §8

Assay [8] concerns BD2 domains (BRD2-BD2, BRD3-BD2, BRD4-BD2). Nature of the assay: SPR binding, stated for the BD2 domains together. More on the design: species or system human.
Experimental: Measurements were conducted on a T200 or S200 (GE Healthcare) and data analysed using the Biacore Insight Evaluation Software. Experiments were performed at 4 C in single cycle kinetics mode. Biotinylated BET bromodomains were immobilised on a CAP chip (GE Healthcare) with a
pH 7.5 was used as the running buffer. Between cycles the chip was regenerated following the
Where [9] appears, read: gray boxed value: no reproducible signals observed at the concentrations used.
Setting [10] is: 4 C, geometric mean and SD of two to five measurements.

Where a SMILES comes first, the peptide text is derived from it. Bridges are numbered along the chain shown (N, C = ends).

T1 sequence (P25440 65-194): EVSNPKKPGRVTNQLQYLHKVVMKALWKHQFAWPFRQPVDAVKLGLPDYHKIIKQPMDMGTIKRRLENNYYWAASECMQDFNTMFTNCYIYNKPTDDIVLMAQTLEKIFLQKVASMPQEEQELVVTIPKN
T2 sequence (Q15059 307-419): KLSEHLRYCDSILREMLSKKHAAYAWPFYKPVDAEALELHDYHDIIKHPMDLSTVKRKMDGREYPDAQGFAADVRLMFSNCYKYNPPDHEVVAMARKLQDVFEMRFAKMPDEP

Consider `CC[C@H](C)[C@@H]1NC(=O)[C@H](Cc2c[nH]c3ccccc23)NC(=O)[C@H]([C@@H](C)CC)NC(=O)[C@H](CCCNC(=N)N)NC(=O)[C@H]([C@@H](C)O)NC(=O)[C@H](CC(C)C)NC(=O)[C@H](CCCCNC(C)=O)NC(=O)[C@H]([C@@H](C)O)NC(=O)[C@H](Cc2c[nH]c3ccccc23)NC(=O)[C@H](CCCNC(=N)N)NC(=O)[C@H](CC(C)C)NC(=O)[C@H](Cc2ccc(O)cc2)NC(=O)[C@H]([C@@H](C)O)NC(=O)[C@H](Cc2c[nH]c3ccccc23)NC(=O)CSC[C@@H](C(N)=O)NC(=O)[C@H](CO)NC1=O` [3.1A] ({CH2CO}-WTYLRWTK(Ac)LTRIWISC-NH2; thioether N-16), for which the “interaction with BRD2-BD1 (in words)” value in assay [1] was “no observable interaction”.
Regarding `CC[C@H](C)[C@@H]1NC(=O)[C@H](C)NC(=O)[C@H](CCCCN)NC(=O)[C@H](CCCCNC(C)=O)NC(=O)[C@H](Cc2c[nH]c3ccccc23)NC(=O)CSC[C@@H](C(N)=O)NC(=O)[C@H]([C@@H](C)CC)NC(=O)[C@H](Cc2c[nH]cn2)NC(=O)[C@H](CC(C)C)NC(=O)[C@H]([C@@H](C)O)NC(=O)[C@H](CCCCN)NC(=O)[C@H](CC(C)C)NC(=O)[C@H]([C@@H](C)CC)NC(=O)[C@H](CCCCNC(C)=O)NC(=O)CNC(=O)[C@@H]2CCCN2C(=O)[C@H](CC(C)C)NC1=O` [3.2A] ({CH2CO}-WK(Ac)KAILPGK(Ac)ILKTLHIC-NH2; thioether N-17), the Kd in assay [1] (setting [9]) was > 10000 nM; in assay [2] (setting [9]) it was > 10000 nM; in assay [3] (setting [10]), 8.9 ± 20 nM; in assay [4] (setting [9]) it was > 10000 nM; in assay [5] (setting [9]), > 10000 nM; in assay [6], > 10000 nM. The “binding to BRD3-BD2 (in words)” value in assay [2] is reported as “strong binding was not observed”.
As for `CC[C@H](C)[C@@H]1NC(=O)[C@H](CCCCN)NC(=O)[C@H](CC(C)C)NC(=O)CNC(=O)[C@H](Cc2ccc(O)cc2)NC(=O)[C@H](CCCCNC(C)=O)NC(=O)[C@H](CCCCN)NC(=O)[C@H](Cc2c[nH]c3ccccc23)NC(=O)[C@H](CCC(N)=O)NC(=O)[C@H](CCCCNC(C)=O)NC(=O)[C@H](Cc2c[nH]c3ccccc23)NC(=O)CSC[C@@H](C(N)=O)NC1=O` [3.2C] ({CH2CO}-WK(Ac)QWKK(Ac)YGLKIC-NH2; thioether N-12), in assay [7], the “binding to BD1 domains (in words)” value is recorded as “did not bind strongly”. The “selectivity between BD2 and BD1 domains” value in assay [8] was 10- to 100 fold. The Kd in assay [8] (read-out: affinities for the BD2 domains) is 10 to 100 nM.
For the compound `CC(=O)NCCCC[C@@H]1NC(=O)[C@H](Cc2c[nH]c3ccccc23)NC(=O)CSC[C@@H](C(=O)N[C@@H](Cc2c[nH]c3ccccc23)C(=O)N[C@@H](CC(C)C)C(=O)N[C@@H](CCCCNC(C)=O)C(=O)N[C@@H](CCCNC(=N)N)C(=O)N[C@@H](CCCCNC(C)=O)C(=O)N[C@@H](CC(C)C)C(=O)N[C@@H](CC(C)C)C(=O)N[C@@H](CC(C)C)C(=O)N[C@@H](CCCNC(=N)N)C(=O)N[C@@H](CS)C(N)=O)NC(=O)[C@H](Cc2c[nH]c3ccccc23)NC(=O)[C@H](CC(N)=O)NC1=O` [4.2A] ({CH2CO}-WK(Ac)NWCWLK(Ac)RK(Ac)LLLRC-NH2; thioether N-5 (inferred)), the “binding to BRD4-BD2, fold tighter than to other BD2 domains” value in assay [4] was 4- to 8 fold. In assay [6], the “binding to BRD3-BD1, fold tighter than to BRD4-BD2” value is listed as 10 fold.
Regarding `CC[C@H](C)[C@@H]1NC(=O)[C@H](CO)NC(=O)[C@@H]2CCCN2C(=O)[C@H](CCCCNC(C)=O)NC(=O)[C@H](CCCNC(=N)N)NC(=O)[C@H](Cc2c[nH]c3ccccc23)NC(=O)[C@H](CCCCNC(C)=O)NC(=O)[C@H](CC(C)C)NC(=O)[C@H](CCCNC(=N)N)NC(=O)[C@H]([C@@H](C)CC)NC(=O)[C@H]([C@@H](C)O)NC(=O)[C@H](Cc2c[nH]cn2)NC(=O)[C@H](Cc2ccc(O)cc2)NC(=O)[C@H](C)NC(=O)[C@H](Cc2c[nH]c3ccccc23)NC(=O)CSC[C@@H](C(N)=O)NC(=O)[C@H](CO)NC1=O` [4.2B] ({CH2CO}-WAYHTIRLK(Ac)WRK(Ac)PSISC-NH2; thioether N-17), the Kd in assay [1] (setting [10]) is 22 ± 0.028 nM; in assay [2] (setting [10]) it was 16 ± 11 nM; in assay [3] (setting [9]), > 10000 nM; in assay [4] (setting [10]) it was 1.1 ± 0.04 nM; in assay [5] (setting [10]), 2.7 ± 6 nM; in assay [6], > 10000 nM. The “selectivity for BD2 domains over BD1 domains (in words)” value in assay [8] is on record as “significant selectivity”.
For the compound `CC[C@H](C)[C@@H]1NC(=O)[C@H]([C@@H](C)O)NC(=O)[C@H](CCCCN)NC(=O)[C@H](Cc2c[nH]c3ccccc23)NC(=O)CSC[C@@H](C(N)=O)NC(=O)[C@H](CCC(N)=O)NC(=O)[C@H](CCCCNC(C)=O)NC(=O)[C@H]([C@@H](C)O)NC(=O)[C@H](CCCNC(=N)N)NC(=O)[C@H](Cc2c[nH]c3ccccc23)NC(=O)[C@H]([C@@H](C)O)NC(=O)[C@H](CCCCNC(C)=O)NC(=O)CNC(=O)[C@H](C)NC1=O` [AcK5→Ala] ({CH2CO}-WKTIAGK(Ac)TWRTK(Ac)QC-NH2; thioether N-14), the “reduction of affinity relative to 3.1B” value in assay [7] is ~80 fold.
`CC[C@H](C)[C@@H]1NC(=O)[C@H]([C@@H](C)O)NC(=O)[C@H](CCCCN)NC(=O)[C@H](Cc2c[nH]c3ccccc23)NC(=O)CSC[C@@H](C(N)=O)NC(=O)[C@H](CCC(N)=O)NC(=O)[C@H](CCCCNC(C)=O)NC(=O)[C@H]([C@@H](C)O)NC(=O)[C@H](CCCNC(=N)N)NC(=O)[C@H](Cc2c[nH]c3ccccc23)NC(=O)[C@H]([C@@H](C)O)NC(=O)[C@H](C)NC(=O)CNC(=O)[C@H](CCCCNC(C)=O)NC1=O` [AcK7→Ala] ({CH2CO}-WKTIK(Ac)GATWRTK(Ac)QC-NH2; thioether N-14): the “reduction of affinity relative to 3.1B” value in assay [7] was “fourfold”.
